Experimental data reported in paper PMC3834327, “N ^6-Substituted AMPs Inhibit Mammalian Deoxynucleotide N-Hydrolase DNPH1” (PLoS ONE, 2013).
Values belong to the compound of their own block, whether it stands above or below them.

What was measured:
human DNPH1 [1] = target: T1, human DNPH1 (Homo sapiens, UniProt O43598); test: Isothermal titration calorimetry with human DNPH1; details: for -T∆S / ∆G / ∆H / ∆S: ITC, T = 298 K, pH 6.0, human DNPH1
T1 sequence (O43598 1-174): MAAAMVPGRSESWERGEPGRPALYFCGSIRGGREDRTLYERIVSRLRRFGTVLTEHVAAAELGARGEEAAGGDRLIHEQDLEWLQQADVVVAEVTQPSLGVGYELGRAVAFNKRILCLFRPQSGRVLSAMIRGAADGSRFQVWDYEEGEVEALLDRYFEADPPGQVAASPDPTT

human DNPH1 [2] = target: T1, human DNPH1; test: Kinetic measurements: inhibition of human DNPH1 activity (dGMP substrate, guanine by RR-HPLC)
rat DNPH1 [3] = target: T2, rat DNPH1 (Rattus norvegicus, UniProt O35820); test: Isothermal titration calorimetry with rat DNPH1; details: for -T∆S / ∆G / ∆H / ∆S: ITC, T = 298 K, pH 6.0, rat DNPH1
T2 sequence (O35820 1-163): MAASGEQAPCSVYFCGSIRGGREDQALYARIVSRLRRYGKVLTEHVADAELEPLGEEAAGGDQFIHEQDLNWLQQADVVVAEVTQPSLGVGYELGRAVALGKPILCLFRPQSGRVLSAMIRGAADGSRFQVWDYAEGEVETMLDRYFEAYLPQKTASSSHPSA

rat DNPH1 [4] = target: T2, rat DNPH1; test: Kinetic measurements: inhibition of rat DNPH1 activity (dGMP substrate, spectrophotometric)
rat DNPH1 [5] = target: T2, rat DNPH1; design: made in house; host or cells: E. coli Bli5; method as in PMID 20962348; details: cited from earlier work
human DNPH1 [6] = target: T1, human DNPH1; test: Kinetic parameters of human DNPH1 with 2'-deoxynucleoside 5'-monophosphates as substrates; type: biochemical; design: made in house; host or cells: E. coli Bli5; details: substrate of human DNPH1; for Km: double reciprocal plots, five concentrations

Compound: C/C(=C\CNc1ncnc2c1ncn2[C@@H]1O[C@H](COP(=O)(O)O)[C@@H](O)[C@H]1O)CO [Compound 2, trans-zeatin riboside 5’-monophosphate]
Ki (human DNPH1 [2]): 8000 ± 1400 nM | Ki (rat DNPH1 [4]): 15500 ± 1000 nM | decrease in activity compared to 1 (rat DNPH1 [4]; hydroxyl group on the C4 chain): up to 5 fold

Compound: C/C(=C/CNc1ncnc2c1ncn2[C@@H]1O[C@H](COP(=O)(O)O)[C@@H](O)[C@H]1O)CO [Compound 3, cis-zeatin riboside 5’-monophosphate]
Ki (human DNPH1 [2]): 5600 ± 800 nM | Ki (rat DNPH1 [4]): 6100 ± 1200 nM

Compound: CC(CO)CCNc1ncnc2c1ncn2[C@@H]1O[C@H](COP(=O)(O)O)[C@@H](O)[C@H]1O (stereo partly shown) [Compound 4, dihydrozeatin riboside 5’-monophosphate]
Ki (human DNPH1 [2]): 3900 ± 1000 nM | Ki (rat DNPH1 [4]): 7600 ± 1500 nM

Compound: O=P(O)(O)OC[C@H]1O[C@@H](n2cnc3c(NCc4ccco4)ncnc32)[C@H](O)[C@@H]1O [Compound 5, kinetin riboside 5’-monophosphate]
Kd (human DNPH1 [1]): 1400 ± 100 nM | -T∆S (human DNPH1 [1]): 12.6 kcal/mol | ∆G (human DNPH1 [1]): -7.5 kcal/mol | ∆H (human DNPH1 [1]): -20.1 ± 0.1 kcal/mol | ∆S (human DNPH1 [1]): -42.4 cal.K^-1.mol^-1 | Ki (human DNPH1 [2]): 2200 ± 200 nM | Kd (rat DNPH1 [3]): 800 ± 100 nM | -T∆S (rat DNPH1 [3]): 17.4 kcal/mol | ∆G (rat DNPH1 [3]): -8.3 kcal/mol | ∆H (rat DNPH1 [3]): -25.7 ± 0.1 kcal/mol | ∆S (rat DNPH1 [3]): -58.3 cal.K^1.mol^-1 | Ki (rat DNPH1 [4]): 1800 ± 700 nM

Compound: O=P(O)(O)OC[C@H]1O[C@@H](n2cnc3c(NCCc4ccccc4)ncnc32)[C@H](O)[C@@H]1O [Compound 12, N ^6-Phenylethyladenosine 5'-monophosphate]
Ki (human DNPH1 [2]): 7800 ± 1000 nM | Ki (rat DNPH1 [4]): 2900 ± 300 nM

Compound: Nc1nc2c(ncn2[C@@H]2O[C@H](COP(=O)(O)O)[C@@H](O)[C@H]2O)c(=O)[nH]1 [GMP]
free energy (rat DNPH1 [5]): -6.8 kcal/mol

Compound: Nc1ncnc2c1ncn2[C@H]1C[C@H](O)[C@@H](COP(=O)(O)O)O1 [dAMP]
kcat (human DNPH1 [6]): 2.5 ± 0.8 10^-3 s^-1 | Km (human DNPH1 [6]): 97 ± 14 µM

Compound: Nc1ccn([C@H]2C[C@H](O)[C@@H](COP(=O)(O)O)O2)c(=O)n1 [dCMP]
kcat (human DNPH1 [6]): 8.3 ± 0.4 10^-3 s^-1 | Km (human DNPH1 [6]): 2500 ± 207 µM

Compound: Nc1nc2c(ncn2[C@H]2C[C@H](O)[C@@H](COP(=O)(O)O)O2)c(=O)[nH]1 [dGMP, 2’-Deoxyguanosine 5’-monophosphate]
kcat (human DNPH1 [6]): 0.002 s⁻¹

Compound: O=c1[nH]cnc2c1ncn2[C@H]1C[C@H](O)[C@@H](COP(=O)(O)O)O1 [dIMP]
kcat (human DNPH1 [6]): 1.6 ± 0.1 10^-3 s^-1 | Km (human DNPH1 [6]): 104 ± 19 µM

Compound: Cc1cn([C@H]2C[C@H](O)[C@@H](COP(=O)(O)O)O2)c(=O)[nH]c1=O [dTMP]
kcat (human DNPH1 [6]): 25 ± 2 10^-3 s^-1 | Km (human DNPH1 [6]): 23000 ± 3050 µM

Compound: O=c1ccn([C@H]2C[C@H](O)[C@@H](COP(=O)(O)O)O2)c(=O)[nH]1 [dUMP]
kcat (human DNPH1 [6]): 200 ± 20 10^-3 s^-1 | Km (human DNPH1 [6]): 7800 ± 1760 µM

More lines, now with the values ahead:

Kd (human DNPH1 [1]): 2100 ± 200 nM | -T∆S (human DNPH1 [1]): 2.4 kcal/mol | ∆G (human DNPH1 [1]): -7.8 kcal/mol | ∆H (human DNPH1 [1]): -10.2 ± 0.1 kcal/mol | ∆S (human DNPH1 [1]): -8.2 cal.K^-1.mol^-1 | Ki (human DNPH1 [2]): 2000 nM | Kd (rat DNPH1 [3]): 2600 ± 100 nM | -T∆S (rat DNPH1 [3]): 8.3 kcal/mol | ∆G (rat DNPH1 [3]): -7.6 kcal/mol | ∆H (rat DNPH1 [3]): -15.9 ± 0.1 kcal/mol | ∆S (rat DNPH1 [3]): -27.9 cal.K^1.mol^-1 | Ki (rat DNPH1 [4]): 3300 nM
Compound: CC(C)=CCNc1ncnc2c1ncn2[C@@H]1O[C@H](COP(=O)(O)O)[C@@H](O)[C@H]1O [Compound 1, N ^6-Isopentenyl adenosine 5’-monophosphate]

Kd (human DNPH1 [1]): 1400 ± 400 nM | -T∆S (human DNPH1 [1]): -1.8 kcal/mol | ∆G (human DNPH1 [1]): -8.0 kcal/mol | ∆H (human DNPH1 [1]): -6.1 ± 0.1 kcal/mol | ∆S (human DNPH1 [1]): 6.2 cal.K^-1.mol^-1 | Ki (human DNPH1 [2]): 2600 ± 300 nM | Kd (rat DNPH1 [3]): 600 ± 100 nM | -T∆S (rat DNPH1 [3]): 2.3 kcal/mol | ∆G (rat DNPH1 [3]): -8.5 kcal/mol | ∆H (rat DNPH1 [3]): -10.7 ± 0.1 kcal/mol | ∆S (rat DNPH1 [3]): -7.5 cal.K^1.mol^-1 | Ki (rat DNPH1 [4]): 1200 ± 100 nM
Compound: O=P(O)(O)OC[C@H]1O[C@@H](n2cnc3c(NC4CCCC4)ncnc32)[C@H](O)[C@@H]1O [Compound 7, N ^6-cyclopentyladenosine 5’-monophosphate]

Ki (human DNPH1 [2]): 1600 ± 300 nM | Kd (rat DNPH1 [3]): 500 ± 100 nM | -T∆S (rat DNPH1 [3]): 11.2 kcal/mol | ∆G (rat DNPH1 [3]): -8.7 kcal/mol | ∆H (rat DNPH1 [3]): -19.9 ± 0.1 kcal/mol | ∆S (rat DNPH1 [3]): -37.6 cal.K^1.mol^-1 | Ki (rat DNPH1 [4]): 1200 ± 100 nM
Compound: O=P(O)(O)OC[C@H]1O[C@@H](n2cnc3c(NC4CCCCC4)ncnc32)[C@H](O)[C@@H]1O [Compound 8, N ^6-Cyclohexyladenosine 5'-monophosphate]

Ki (human DNPH1 [2]): 1500 ± 100 nM | Ki (rat DNPH1 [4]): 1300 ± 100 nM
Compound: O=P(O)(O)OC[C@H]1O[C@@H](n2cnc3c(NC4CCC4)ncnc32)[C@H](O)[C@@H]1O [Compound 9, N ^6-Cyclobutyladenosine 5'-monophosphate]

Ki (human DNPH1 [2]): 2800 ± 600 nM | Ki (rat DNPH1 [4]): 2000 ± 600 nM
Compound: O=P(O)(O)OC[C@H]1O[C@@H](n2cnc3c(NC4CC4)ncnc32)[C@H](O)[C@@H]1O [Compound 10, N ^6-Cyclopropyladenosine 5'-monophosphate]

Ki (human DNPH1 [2]): 5600 ± 500 nM | Ki (rat DNPH1 [4]): 6200 ± 700 nM
Compound: O=C(O)CCNc1ncnc2c1ncn2[C@@H]1O[C@H](COP(=O)(O)O)[C@@H](O)[C@H]1O [Compound 13, N ^6-(2-carboxyethyl)adenosine 5'-monophosphate]

Kd (human DNPH1 [1]): 5500 ± 100 nM | -T∆S (human DNPH1 [1]): 2.6 kcal/mol | ∆G (human DNPH1 [1]): -7.2 kcal/mol | ∆H (human DNPH1 [1]): -9.8 ± 0.1 kcal/mol | ∆S (human DNPH1 [1]): -8.8 cal.K^-1.mol^-1 | Ki (human DNPH1 [2]): 2100 ± 200 nM | Kd (rat DNPH1 [3]): 9400 ± 100 nM | -T∆S (rat DNPH1 [3]): 5.5 kcal/mol | ∆G (rat DNPH1 [3]): -6.9 kcal/mol | ∆H (rat DNPH1 [3]): -12.4 ± 0.1 kcal/mol | ∆S (rat DNPH1 [3]): -18.5 cal.K^1.mol^-1 | Ki (rat DNPH1 [4]): 11200 nM
Compound: O=C(O)CCCNc1ncnc2c1ncn2[C@@H]1O[C@H](COP(=O)(O)O)[C@@H](O)[C@H]1O [Compound 14, N ^6-(3-carboxypropyl)adenosine 5'-monophosphate]
